Measurements: patent US6787525B1, “Glyceryl nucleotides, method for the production thereof and their use” (priority 1998, dated 2004)

What was measured:
HCC-2998 = experiment: In vitro cytostatic effect (SRB): HCC-2998, Intestinal cancer
HOP-92 = experiment: In vitro cytostatic effect (SRB): HOP-92, Lung cancer
MCF7 = experiment: In vitro cytostatic effect (SRB): MCF7, Breast cancer
[1] = read-out: LC50, 48-hour incubation

CCCCCCCCCCCCCCCCCCOC(COP(=O)(O)OCC1OC(n2cc(F)c(=O)[nH]c2=O)CC1O)COP(=O)(O)OCC1OC(n2ccc(N)nc2=O)C(O)C1O (racemic) [NSC 698688-A/1, arabinocytidylyl-(5′→1)-2-O-octadecyl-rac-glycerylyl-(3→5′)-5-fluoro-2′-deoxyuridine]
GI50 (HCC-2998; 48-hour incubation): 58.8 nM
TGI (HCC-2998; 48-hour incubation): 3.50E − 05 mol/l
CC50 (HCC-2998; [1]): > 100000 nM
GI50 (HOP-92; 48-hour incubation): 80.2 nM
TGI (HOP-92; 48-hour incubation): 8.99E − 05 mol/l
CC50 (HOP-92; [1]): > 100000 nM
GI50 (MCF7; 48-hour incubation): 170 nM
TGI (MCF7; 48-hour incubation): >1.00E − 04 mol/l
CC50 (MCF7; [1]): > 100000 nM
